Values of other authors in patent publication US8586760B2, “Aminothiazole modulators of beta-3-adrenoreceptor” (Auspex Pharmaceuticals, Inc., priority 2009, dated 2013).

Columns and labels:
[1] = biological target: CYP3A4 (Homo sapiens, UniProt P08684)
[2] = biological target: CYP2D6 (Homo sapiens, UniProt P10635)
[3] = poor metabolizers compared to extensive metabolizers

Chain of CYP2D6 (P10635 whole entry): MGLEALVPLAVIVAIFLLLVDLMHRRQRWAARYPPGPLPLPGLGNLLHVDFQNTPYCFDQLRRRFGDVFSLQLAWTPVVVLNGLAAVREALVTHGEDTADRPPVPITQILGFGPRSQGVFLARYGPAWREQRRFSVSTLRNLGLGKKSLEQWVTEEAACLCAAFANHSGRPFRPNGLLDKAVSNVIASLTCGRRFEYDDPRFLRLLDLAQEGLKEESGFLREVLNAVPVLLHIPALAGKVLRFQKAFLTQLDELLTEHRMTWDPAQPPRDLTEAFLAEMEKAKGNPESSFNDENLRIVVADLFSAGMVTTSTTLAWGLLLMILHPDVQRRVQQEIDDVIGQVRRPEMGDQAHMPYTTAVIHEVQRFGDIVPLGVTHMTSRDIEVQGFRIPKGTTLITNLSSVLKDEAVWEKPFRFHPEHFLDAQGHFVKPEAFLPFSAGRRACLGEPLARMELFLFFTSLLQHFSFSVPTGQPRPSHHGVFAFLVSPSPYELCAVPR
Chain of CYP3A4 (P08684 whole entry): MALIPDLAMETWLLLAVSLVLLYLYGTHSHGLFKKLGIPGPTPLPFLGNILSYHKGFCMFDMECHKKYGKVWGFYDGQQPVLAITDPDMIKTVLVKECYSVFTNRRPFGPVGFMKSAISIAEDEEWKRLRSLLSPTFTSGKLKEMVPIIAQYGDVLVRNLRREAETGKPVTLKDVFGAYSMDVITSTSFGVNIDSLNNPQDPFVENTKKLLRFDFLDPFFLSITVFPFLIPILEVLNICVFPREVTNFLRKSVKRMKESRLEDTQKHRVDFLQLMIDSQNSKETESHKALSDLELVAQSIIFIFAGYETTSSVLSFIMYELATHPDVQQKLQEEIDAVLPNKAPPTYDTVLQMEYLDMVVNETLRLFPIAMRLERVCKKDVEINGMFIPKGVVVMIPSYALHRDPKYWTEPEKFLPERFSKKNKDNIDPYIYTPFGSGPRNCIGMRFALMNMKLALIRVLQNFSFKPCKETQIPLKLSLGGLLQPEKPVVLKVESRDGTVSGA

Which Intersubject variability (poor metabolizers) does the source give for `Nc1nc(CC(=O)Nc2ccc(CCNC[C@H](O)c3ccccc3)cc2)cs1` [Mirabegron, 2-amino-N-[4-[2-[[(2R)-2-hydroxy-2-phenylethyl]amino]ethyl]phenyl]-4-thiazoleacetamide] here?
Its Intersubject variability is “generally higher”.

And the “Mean Cmax” value [3]?
Its value is “slightly higher”.

And the “mean AUC” value [3]?
The value was “slightly higher”.

What about the t1/2 [3] of the same compound?
Its t1/2 is “longer”.

And the “metabolism by CYP3A4” value [1]?
Its value is “oxidative cleavage”.

And the “metabolism by CYP2D6” value [2]?
Its value is “oxidative cleavage”.
